Reference: patent EP4579344A1, “THIOALKYLCOUMARIN PHOTOSENSITIZERS FOR PHOTOPOLYMERIZATION” (IGM Group B.V., priority 2023, dated 2025)

Tests used:
[1] = Fluorescence emission peak wavelength; type: physicochemical; details: dilute solution (A ~0.1) in acetonitrile; excitation at absorption maximum
Description: Fluorescence emission peak wavelength: Fluorescence spectra of the photosensitizers were recorded using a Horiba Jobin Yvon Fluoromax4 spectrofluorometer. The measurement for each photosensitizer was taken in a dilute solution (A ~0.1) of spectroscopic grade acetonitrile, using 1 cm path cell. The excitation wavelength was set at the maximum of absorption of the photosensitizer.

[2] = Maximum absorption peak wavelength; type: physicochemical; details: spectroscopic grade acetonitrile; maximum between 300 nm and 450 nm
Description: Maximum absorption peak wavelength: Absorption spectra have been recorded using an AnalytikJena S600 spectrophotometer. On a microbalance, the photosensitizer was weighted with a 10^-6 g precision in a DSC crucible. The crucible and its content was transferred in volumetric flask, then filled with spectroscopic grade acetonitrile. The reference was taken for the empty spectrometer, and two series of spectra were recorded for each solution, in a 1 cm path and in a 1 mm path cells. The spectra of the solvent was taken separately in both cell and then subtracted to solutions spectra. The absorption maxima value is taken where the absorption spectra reaches its maximum in the region between (300 nm and 450 nm)

λ^fluo max [1]	λ^abs max [2]	Compound
440 nm	345 nm	CCSc1ccc2cc(-c3ccccc3)c(=O)oc2c1 [S1]
411 nm	352 nm	CCCCC(CC)CSc1ccc2cc(-c3ccccc3)c(=O)oc2c1 (stereo not drawn) [S2]
435 nm	351 nm	CN(C)CCSc1ccc2cc(-c3ccccc3)c(=O)oc2c1 [S4]

Second part, the molecule before the results:

Compound	λ^fluo max [1]	λ^abs max [2]
CCSc1ccc(-c2cc3ccc(SCC)cc3oc2=O)cc1 [S3]	439 nm	347 nm
Cc1cc(=O)oc2cc(SCCO)ccc12 [S5]	396 nm	330 nm
Cc1c(-c2ccccc2)c(=O)oc2cc(SCCO)ccc12 [S6]	424 nm	335 nm
CSc1ccc2cc(-c3nc4ccccc4n3C)c(=O)oc2c1 [S7]	476 nm	362 nm
CCN(CC)c1ccc2c(C)cc(=O)oc2c1 [S8, 7-diethylamino-4-methylcoumarin, reference compound]	434 nm	370 nm
CCSc1ccc2ccc(=O)oc2c1 [S9]	406 nm	323 nm
